Measured values reported in patent EP4786487A1, “PEPTIDE” (Peptidream Inc, priority 2023, dated 2025).
Starred links: 1 amine or outer side, 2 acyl side, 3 side chain; linkers in the order of their positions; H or OH if unused. Positions of bridges follow the written chain, without caps; N, C: chain ends. Non-standard residues stand in square brackets, D forms with d. Residues, ends and D or L forms follow the SMILES beside them. Groups on a side chain read outwards from the residue. *: point of attachment. Phe(3-OCH2COOH) = N[C@@H](Cc1cccc(OCC(=O)O)c1)C(=O)O; Phe(4-COOH) = N[C@@H](Cc1ccc(C(=O)O)cc1)C(=O)O; Piperazinyl(4-CH2COOH) = O=C(O)CN1CCN(*)CC1; Gly(decyl) = CCCCCCCCCC[C@H](N)C(=O)O; NMeF = CN[C@@H](Cc1ccccc1)C(=O)O; Cha = N[C@@H](CC1CCCCC1)C(=O)O; NMeA = CN[C@@H](C)C(=O)O; CO = O=C([*:1])[*:2]; Sar = CNCC(=O)O

Key:
[1] = biological target: T1, Myostatin (Homo sapiens, UniProt O14793); test: HepG2 reporter gene assay, Evaluation Procedure (2): 2-concentrations assay, myostatin inhibition; type: cell-based; details: Myostatin 10 ng/mL, HepG2; for inhibition at 0.03 µM: peptide 30nM, read-out: Myostatin Inhibition 30nM; for inhibition at 0.1 µM: peptide 100nM, read-out: Myostatin Inhibition 100nM
T1 construct: active myostatin (also called mature myostatin) is a homodimer consisting of two C-terminal growth factor domains; purchased R&D systems 788-G8/CF
T1 sequence (O14793 267-375): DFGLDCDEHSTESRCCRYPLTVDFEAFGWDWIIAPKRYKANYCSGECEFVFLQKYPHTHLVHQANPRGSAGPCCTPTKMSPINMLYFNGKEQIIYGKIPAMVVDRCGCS
Procedure, shortened: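 HepG2 cells (HB-8065, ATCC) carrying the transfected pGL3(CAGA)12-luc reporter plasmid were treated with myostatin (788-G8/CF, R&D systems) at a final concentration of 10 ng/mL plus peptide and incubated at 37°C, 5% CO2 for 20 to 24 hours. Luminescence was read after adding PBS mixed 1:1 with One-Glo substrate, and inhibition rate was calculated.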

[2] = biological target: T2, GDF-11 (Homo sapiens, UniProt O95390); test: HepG2 reporter gene assay, Evaluation Procedure (2): 2-concentrations assay, GDF-11 inhibition; type: cell-based; details: GDF-11 10 ng/mL; for inhibition at 0.03 µM: HepG2, peptide 30nM, read-out: GDF11 Inhibition 30nM; for inhibition at 0.1 µM: HepG2, peptide 100nM, read-out: GDF11 Inhibition 100nM
T2 construct: purchased R&D systems 1958-GD-G8/CF
T2 sequence (O95390 299-407): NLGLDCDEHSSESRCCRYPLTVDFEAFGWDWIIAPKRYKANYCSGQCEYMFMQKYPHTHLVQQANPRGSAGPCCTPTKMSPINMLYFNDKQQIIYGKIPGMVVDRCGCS
Procedure, shortened: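 HepG2 cells carrying the transfected pGL3(CAGA)12-luc reporter, a pGL3 vector with luciferase placed downstream of 12 CAGA repeats, were stimulated with GDF-11 at a final 10 ng/mL together with test peptide. Blank wells received no GDF-11 and no peptide. Plates were incubated 20 to 24 hours at 37°C with 5% CO2. Luminescence from One-Glo substrate was read to calculate percent inhibition.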

Question: With `CCCCCCCCCC[C@@H]1NC(=O)[C@H](Cc2ccccc2)N(C)C(=O)[C@H](CCCNC(=N)N)NC(=O)[C@H](Cc2ccc(C(=O)O)cc2)NC(=O)[C@H](Cc2cccc(OCC(=O)O)c2)NC(=O)CN(C)C(=O)[C@H]([C@@H](C)CC)NC(=O)[C@H](Cc2ccccc2)N(C)C(=O)[C@H](Cc2ccc(O)cc2)NC(=O)[C@H](Cc2c[nH]c3ccccc23)NC(=O)[C@H](C)NC(=O)[C@H](CCCCNC(=O)N2CCN(CC(=O)O)CC2)NC(=O)CSC[C@H](C(=O)N2CCN(CC(=O)O)CC2)NC(=O)[C@H](Cc2ccccc2)N(C)C(=O)[C@H](C)N(C)C1=O` [Myostatin_99_v263] ({CH2CO}-K([CO-Piperazinyl(4-CH2COOH)])AWY[NMeF]I[Sar][Phe(3-OCH2COOH)][Phe(4-COOH)]R[NMeF][Gly(decyl)][NMeA][NMeF][dC]-{Piperazinyl(4-CH2COOH)}; thioether N-15) as the compound, how does the inhibition at 0.03 µM [1] read?
Answer: 100%

Question: And the inhibition at 0.1 µM [1]?
Answer: 100%

Question: What about the inhibition at 0.03 µM [2] of the same compound?
Answer: 8%

Question: What about the inhibition at 0.1 µM [2] of the same compound?
Answer: 56%

Question: With `CCCCCCCCCC[C@@H]1NC(=O)[C@H](Cc2ccccc2)N(C)C(=O)[C@H](CCCNC(=N)N)NC(=O)[C@H](Cc2ccc(C(=O)O)cc2)NC(=O)[C@H](Cc2cccc(OCC(=O)O)c2)NC(=O)CN(C)C(=O)[C@H]([C@@H](C)CC)NC(=O)[C@H](Cc2ccccc2)N(C)C(=O)[C@H](Cc2ccc(O)cc2)NC(=O)[C@H](Cc2c[nH]c3ccccc23)NC(=O)[C@@H](CCCCNC(=O)N2CCN(CC(=O)O)CC2)NC(=O)[C@H](C)NC(=O)CSC[C@H](C(=O)N2CCN(CC(=O)O)CC2)NC(=O)[C@H](Cc2ccccc2)N(C)C(=O)[C@H](C)N(C)C1=O` [Myostatin_99_v264] ({CH2CO}-A[dK]([CO-Piperazinyl(4-CH2COOH)])WY[NMeF]I[Sar][Phe(3-OCH2COOH)][Phe(4-COOH)]R[NMeF][Gly(decyl)][NMeA][NMeF][dC]-{Piperazinyl(4-CH2COOH)}; thioether N-15) as the compound, how does the inhibition at 0.03 µM [1] read?
Answer: 100%

Question: And the inhibition at 0.1 µM [1]?
Answer: 100%

Question: What about the inhibition at 0.03 µM [2] of the same compound?
Answer: 24%

Question: And the inhibition at 0.1 µM [2]?
Answer: 72%

Question: Which results are given for `CCCCCCCCCC[C@@H]1NC(=O)[C@H](CC2CCCCC2)NC(=O)[C@H](CCCNC(=N)N)NC(=O)[C@H](Cc2ccc(C(=O)O)cc2)NC(=O)[C@H](CCCCNC(=O)N2CCN(CC(=O)O)CC2)NC(=O)CN(C)C(=O)[C@H]([C@@H](C)CC)NC(=O)[C@H](Cc2ccccc2)N(C)C(=O)[C@H](Cc2ccc(O)cc2)NC(=O)[C@H](Cc2c[nH]c3ccccc23)NC(=O)[C@H](C)NC(=O)[C@H](CCCCNC(=O)N2CCN(CC(=O)O)CC2)NC(=O)CSC[C@H](C(=O)N2CCN(CC(=O)O)CC2)NC(=O)[C@H](Cc2ccccc2)N(C)C(=O)[C@H](C)N(C)C1=O` [Myostatin_99_v267] ({CH2CO}-K([CO-Piperazinyl(4-CH2COOH)])AWY[NMeF]I[Sar]K([CO-Piperazinyl(4-CH2COOH)])[Phe(4-COOH)]R[Cha][Gly(decyl)][NMeA][NMeF][dC]-{Piperazinyl(4-CH2COOH)}; thioether N-15)?
Answer: inhibition at 0.03 µM [1]: 100%; inhibition at 0.1 µM [1]: 100%; inhibition at 0.03 µM [2]: 24%; inhibition at 0.1 µM [2]: 64%

Question: `CCCCCCCCCC[C@@H]1NC(=O)[C@H](CC2CCCCC2)NC(=O)[C@H](CCCNC(=N)N)NC(=O)[C@H](Cc2ccc(C(=O)O)cc2)NC(=O)[C@H](CCCCNC(=O)N2CCN(CC(=O)O)CC2)NC(=O)CN(C)C(=O)[C@H]([C@@H](C)CC)NC(=O)[C@H](Cc2ccccc2)N(C)C(=O)[C@H](Cc2ccc(O)cc2)NC(=O)[C@H](Cc2c[nH]c3ccccc23)NC(=O)[C@@H](CCCCNC(=O)N2CCN(CC(=O)O)CC2)NC(=O)[C@H](C)NC(=O)CSC[C@H](C(=O)N2CCN(CC(=O)O)CC2)NC(=O)[C@H](Cc2ccccc2)N(C)C(=O)[C@H](C)N(C)C1=O` [Myostatin_99_v268] ({CH2CO}-A[dK]([CO-Piperazinyl(4-CH2COOH)])WY[NMeF]I[Sar]K([CO-Piperazinyl(4-CH2COOH)])[Phe(4-COOH)]R[Cha][Gly(decyl)][NMeA][NMeF][dC]-{Piperazinyl(4-CH2COOH)}; thioether N-15) was tested. Which inhibition at 0.03 µM [1] did it give?
Answer: 100%

Question: And the inhibition at 0.1 µM [1]?
Answer: 100%

Question: And the inhibition at 0.03 µM [2]?
Answer: 65%

Question: What about the inhibition at 0.1 µM [2] of the same compound?
Answer: 92%
